Measurements published in patent US7332279B2 (Glycozym APS, priority 1999, dated 2008).
Where two headings read alike, the source gives them in different places.

Assays:
Assay type in all cases: biochemical
β3Gal-T2 = target: T1, β3Gal-T2 (Homo sapiens, UniProt O43825); assay: Galactosyltransferase assay, recombinant β3Gal-T2, saccharide acceptors
T1 construct: The kinetic properties were determined with partially purified, secreted forms of the enzymes; made in house; host or cells: baculovirus; Sf9 / High Five insect cells, medium
T1 sequence (O43825 46-422 limits assumed): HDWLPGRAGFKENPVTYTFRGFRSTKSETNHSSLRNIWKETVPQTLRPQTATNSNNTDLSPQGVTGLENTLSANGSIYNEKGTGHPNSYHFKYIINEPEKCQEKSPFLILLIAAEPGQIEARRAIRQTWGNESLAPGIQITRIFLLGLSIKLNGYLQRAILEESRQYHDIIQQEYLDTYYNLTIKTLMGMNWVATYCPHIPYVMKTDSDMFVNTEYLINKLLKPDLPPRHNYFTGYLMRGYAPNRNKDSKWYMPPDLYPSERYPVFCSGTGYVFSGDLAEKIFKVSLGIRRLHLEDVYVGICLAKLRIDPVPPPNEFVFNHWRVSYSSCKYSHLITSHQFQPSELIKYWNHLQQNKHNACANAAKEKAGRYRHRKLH

β3Gal-T5 = target: T2, β3Gal-T5 (Homo sapiens, UniProt Q9Y2C3, M85T); assay: Galactosyltransferase assay, partially purified secreted recombinant β3Gal-T5, saccharide acceptors; details: for β3Gal-T5 activity, substrate concentration 1 mM: acceptor 1 mM; for β3Gal-T5 activity, substrate concentration 5 mM: acceptor 5 mM
T2 construct: designed to exclude the hydrophobic transmembrane segment and to encode amino acid residues 25-310; secretion signal of vector pAcGP67B (gp67); made in house; host or cells: baculovirus; Sf9 cells (media) and High Five cells (serum-free medium, partially purified)
T2 sequence (Q9Y2C3 25-310 M85T): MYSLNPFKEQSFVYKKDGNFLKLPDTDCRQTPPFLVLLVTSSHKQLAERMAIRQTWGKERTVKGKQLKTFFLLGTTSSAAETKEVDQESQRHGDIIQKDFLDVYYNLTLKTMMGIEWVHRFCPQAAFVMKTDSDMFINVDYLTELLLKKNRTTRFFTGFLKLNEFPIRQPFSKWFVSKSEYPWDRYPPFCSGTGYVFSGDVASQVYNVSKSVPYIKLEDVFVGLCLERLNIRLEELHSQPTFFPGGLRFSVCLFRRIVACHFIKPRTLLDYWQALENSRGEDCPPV
Excerpt: PCR product was cloned into the BamHI site of pAcGP67B (Pharmingen). […] This PCR product was cloned into the BamHI site of pVL1193 (Pharmingen). Both soluble and full length constructs were fully sequenced to confirm fidelity. Plasmids […]5-full were co-transfected with Baculo-GoldTM DNA (Pharmingen) as described previously (Bennett, […]. and Clausen, H. cDNA cloning and expression of a novel human UDP-N-acetyl-alpha-D-galactosamine. Polypeptide N-acetyl-galactosaminyl-transferase, GalNAc-T3. J. Biol. Chem. 271:17006-17012, 1996). Recombinant Baculo-virus were obtained after two successive amplifications in Sf9 cells grown in serum-containing medium, and titers of virus were estimated by titration in 24-well plates with monitoring of enzyme activities. […] J. Biol. […] J. Biol. […] Polypeptide N-acetyl-galactosaminyl-transferase, GalNAc-T3. J. Biol. Chem. 271:17006-17012, 1996). For large scale expression amplified virus was used to infect High FiveTM cells grown in serum-free media (Invitrogen) in upright roller bottles shaking at 140 rpm and 27° C. The kinetic properties were determined with partially purified, secreted forms of the enzymes. Semipurification of enzymes from serum-free medium of infected High-FiveTM cells was performed by sequential Amberlite, DEAE-Sephacel and 5-Sepharose chromatography as described previously ([…]., et al. […] J. Biol. Chem. 272:23503-23514, 1997). Comparisons of enzymes were performed relatively to the activity obtained with βGlcNAc-Bz1 (Tables II and III). Full length enzymes were assayed with 1% Triton CF54 homogenates of washed cells. […] Reaction products were quantified by Dowex-1 chromatography. […] P. and Clausen, H. […] J. Biol. Chem. 273:29295-29305, 1998). The transfer of Gal was evaluated after acid precipitation by filtration through Whatman GF/C glass fibre filters. […] Assays with glycolipid acceptors were conducted as previously described (Holmes, E. H. […] Arch Biochem Biophys 270:630-646, 1989) in reaction mixtures containing 2.5 μmol HEPES buffer, pH 7.2, μmol MnCl2, 100 μg taurodeoxycholate or Triton CF-54, 20 μg acceptor glycolipid, 15 nmol UDP-[^14C]-galactose (13,000 cpm/nmol) and enzyme in a total volume of 100 μl. Conditions for incubation and product isolation were as previously described (Id.).

β3Gal-T1 = target: T3, β3Gal-T1 (Homo sapiens, UniProt Q9Y5Z6); assay: Galactosyltransferase assay, recombinant β3Gal-T1, saccharide acceptors
T3 construct: The kinetic properties were determined with partially purified, secreted forms of the enzymes; made in house; host or cells: baculovirus; Sf9 / High Five insect cells, medium
T3 sequence (Q9Y5Z6 27-326 limits assumed): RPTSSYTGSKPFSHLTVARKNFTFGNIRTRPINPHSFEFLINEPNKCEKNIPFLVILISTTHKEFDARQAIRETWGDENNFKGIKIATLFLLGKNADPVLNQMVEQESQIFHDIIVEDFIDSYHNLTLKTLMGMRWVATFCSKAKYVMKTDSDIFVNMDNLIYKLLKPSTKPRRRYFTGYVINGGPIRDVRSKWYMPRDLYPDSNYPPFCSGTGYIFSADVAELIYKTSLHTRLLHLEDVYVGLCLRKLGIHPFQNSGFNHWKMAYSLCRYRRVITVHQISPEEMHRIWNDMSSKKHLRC

| SMILES | β3Gal-T2 activity, acceptor 0.2 mM (β3Gal-T2) | β3Gal-T2 ratio to value with βGlcNAc-Bzl, acceptor 0.2 mM (β3Gal-T2) | β3Gal-T2 activity, acceptor 2 mM (β3Gal-T2) | β3Gal-T2 ratio to value with βGlcNAc-Bzl, acceptor 2 mM (β3Gal-T2) | β3Gal-T5 activity, acceptor 0.2 mM (β3Gal-T5) | β3Gal-T5 ratio to value with βGlcNAc-Bzl, acceptor 0.2 mM (β3Gal-T5) | β3Gal-T5 activity, acceptor 2 mM (β3Gal-T5) | β3Gal-T5 ratio to value with βGlcNAc-Bzl, acceptor 2 mM (β3Gal-T5) | Vmax (β3Gal-T5; Table V) | Km (β3Gal-T5; Table V, read-out: Km) | β3Gal-T5 activity, substrate concentration 1 mM (β3Gal-T5) | β3Gal-T5 activity, substrate concentration 5 mM (β3Gal-T5) | β3Gal-T1 activity, acceptor 0.2 mM (β3Gal-T1) | β3Gal-T1 ratio to value with βGlcNAc-Bzl, acceptor 0.2 mM (β3Gal-T1) | β3Gal-T1 activity, acceptor 2 mM (β3Gal-T1) | β3Gal-T1 ratio to value with βGlcNAc-Bzl, acceptor 2 mM (β3Gal-T1) | other results |
| --- | --- | --- | --- | --- | --- | --- | --- | --- | --- | --- | --- | --- | --- | --- | --- | --- | --- |
| CC(=O)NC1C(OC2C(O)C(CO)OC(Oc3ccc([N+](=O)[O-])cc3)C2NC(C)=O)OC(CO)C(O)C1O [β-D-GlcNAc-(1–3)-α-D-GalNAc-p-Nph] | 0.0 nmol/min | (0.0) | 0.0 nmol/min | (0.0) | 0.3 nmol/min | (0.3) | 0.2 nmol/min | (2.0) | 931.1 pmol/min | 2800 µM | 10.8 nmol/min/mL | 34.4 nmol/min/mL | 0.0 nmol/min | (0.0) | 0.0 nmol/min | (0.0) | Km (β3Gal-T5; acceptor substrate, read-out: apparent Km of β3Gal-T5): 2800 µM |
| CC(=O)N[C@H]1[C@H](OCc2ccccc2)O[C@H](CO)[C@@H](O)[C@@H]1O [β-D-GlcNAc-Bzl] | – | – | – | – | – | – | – | – | 873.4 pmol/min | 20400 µM | 1.5 nmol/min/mL | 3.9 nmol/min/mL | – | – | – | – | β3Gal-T2 activity with β-D-GlcNAc-Bzl (Table III) (β3Gal-T2; β-D-GlcNAc-Bzl at 80 mM): 0.04 nmol/min; β3Gal-T2 activity with βGlcNAc-Bzl (β3Gal-T2; β-D-GlcNAc-Bzl at 80 mM): 0.04 nmol/min; β3Gal-T5 activity with β-D-GlcNAc-Bzl (Table III) (β3Gal-T5; β-D-GlcNAc-Bzl at 20 mM): 0.1 nmol/min; β3Gal-T5 activity with βGlcNAc-Bzl (β3Gal-T5; β-D-GlcNAc-Bzl at 20 mM): 0.1 nmol/min; β3Gal-T1 activity with β-D-GlcNAc-Bzl (Table III) (β3Gal-T1; β-D-GlcNAc-Bzl at 80 mM): 0.03 nmol/min; β3Gal-T1 activity with βGlcNAc-Bzl (β3Gal-T1; β-D-GlcNAc-Bzl at 80 mM): 0.03 nmol/min |
| CC(=O)N[C@H]1[C@H](OC[C@H]2O[C@H](Oc3ccc([N+](=O)[O-])cc3)[C@H](NC(C)=O)[C@@H](O[C@@H]3O[C@H](CO)[C@H](O)[C@H](O)[C@H]3O)[C@H]2O)O[C@H](CO)[C@@H](O)[C@@H]1O [βGlcNAc(1,6)[βGal(1,3)]αGalNAc-p-Nph] | 0.0 nmol/min | (0.0) | 0.0 nmol/min | (0.0) | 0.0 nmol/min | (0.0) | 0.01 nmol/min | (0.1) | – | – | – | – | 0.0 nmol/min | (0.0) | 0.0 nmol/min | (0.0) | – |
